Results as given in ChEMBL document CHEMBL3046858, “Synthesis and fungicidal activities of novel indene-substituted oxime ether strobilurins” (2008).

How the values were obtained:
Type in all cases: functional
Parameters in all cases: dose or concentration left out as unconfirmed
[1] = system: Pseudoperonospora cubensis; assay: Fungicidal activity against Pseudoperonospora cubensis grown on compound pre-treated cucumber leaves assessed as inhibition of fungal growth at 6.25 mg/ml measured 5 days post compound treatment
[2] = system: Phytophthora infestans; assay: Fungicidal activity against Phytophthora infestans assessed as inhibition of mycelial growth at 25 mg/ml measured after 48 hr
[3] = system: Blumeria graminis; assay: Fungicidal activity against Blumeria graminis grown on compound pre-treated wheat seedlings assessed as inhibition of fungal growth at 6.25 mg/ml measured 7 days post fungal inoculation
[4] = system: Pyricularia oryzae; assay: Fungicidal activity against Magnaporthe oryzae assessed as inhibition of mycelial growth at 25 mg/ml measured after 48 hr
[5] = system: Colletotrichum lagenaria; assay: Fungicidal activity against Colletotrichum lagenaria infected in compound pre-treated cucumber plants assessed as inhibition of fungal growth at 6.25 mg/ml measured 3 days post compound treatment
[6] = system: Botrytis cinerea; assay: Fungicidal activity against Botryotinia fuckeliana assessed as inhibition of mycelial growth at 25 mg/ml measured after 48 hr

Structure (SMILES) | inhibition [1] | inhibition [2] | inhibition [3] | inhibition [4] | inhibition [5] | inhibition [6]
CNC(=O)/C(=N/OC)c1ccccc1CO/N=C(\C)C1=Cc2ccccc2C1 | 95% | 100% | 100% | 100% | 95% | 100%
CNC(=O)/C(=N/OC)c1ccccc1CO/N=C(\C)C1=Cc2ccc(Cl)cc2C1 | 85% | 100% | 100% | 100% | 100% | 100%
CNC(=O)/C(=N/OC)c1ccccc1CO/N=C(\C)C1=Cc2ccc(F)cc2C1 | 100% | 100% | 100% | 100% | 100% | 80%
CNC(=O)/C(=N/OC)c1ccccc1CO/N=C(\C)C1=Cc2ccc(C)cc2C1 | 100% | 100% | 100% | 100% | 100% | 100%
CNC(=O)/C(=N/OC)c1ccccc1CO/N=C(\C)C1=Cc2cc(Cl)ccc2C1 | 90% | 80% | 100% | 80% | 98% | 100%
CNC(=O)/C(=N/OC)c1ccccc1CO/N=C(\C)C1=Cc2cc(F)ccc2C1 | 30% | 80% | 100% | 100% | 30% | 80%
CNC(=O)/C(=N/OC)c1ccccc1CO/N=C(\C)C1=Cc2c(Cl)cccc2C1 | 100% | 100% | 100% | 100% | 80% | 80%
CO/C=C(/C(=O)OC)c1ccccc1CO/N=C(C)/C=C/c1ccc(Cl)cc1 | 100% |  | 62.5% | 100% | 50% | 80%
CO/C=C(/C(=O)OC)c1ccccc1CO/N=C(\C)C1=Cc2ccc(Cl)cc2C1 | 40% | 100% | 100% | 50% | 60% | 80%
CO/C=C(/C(=O)OC)c1ccccc1CO/N=C(\C)C1=Cc2ccc(F)cc2C1 |  | 100% | 100% | 100% | 60% | 50%
CO/C=C(/C(=O)OC)c1ccccc1CO/N=C(\C)C1=Cc2ccc(C)cc2C1 | 80% | 100% | 100% | 100% | 70% | 80%
CO/C=C(/C(=O)OC)c1ccccc1CO/N=C(\C)C1=Cc2cc(Cl)ccc2C1 | 30% | 100% | 100% | 100% | 30% | 80%
CO/C=C(/C(=O)OC)c1ccccc1CO/N=C(\C)C1=Cc2c(Cl)cccc2C1 | 0% | 100% | 85% | 100% | 30% | 80%
CO/N=C(/C(=O)OC)c1ccccc1CO/N=C(\C)C1=Cc2ccccc2C1 | 30% | 100% | 10% | 100% | 30% | 80%
CO/N=C(/C(=O)OC)c1ccccc1CO/N=C(\C)C1=Cc2ccc(Cl)cc2C1 | 50% | 100% | 90% | 100% | 65% | 80%
CO/N=C(/C(=O)OC)c1ccccc1CO/N=C(\C)C1=Cc2ccc(F)cc2C1 | 85% | 100% | 85% | 100% | 40% | 50%
CO/N=C(/C(=O)OC)c1ccccc1CO/N=C(\C)C1=Cc2ccc(C)cc2C1 | 100% | 100% | 100% | 100% | 90% | 80%
CO/N=C(/C(=O)OC)c1ccccc1CO/N=C(\C)C1=Cc2cc(Cl)ccc2C1 | 95% | 100% | 95% | 100% | 90% | 80%
CO/N=C(/C(=O)OC)c1ccccc1CO/N=C(\C)C1=Cc2cc(F)ccc2C1 | 70% | 100% | 100% | 50% | 40% | 80%
CO/N=C(/C(=O)OC)c1ccccc1CO/N=C(\C)C1=Cc2c(Cl)cccc2C1 | 90% | 100% | 100% | 100% | 100% | 100%
CO/N=C(\C(=O)OC)c1ccccc1CO/N=C(\C)c1cccc(C(F)(F)F)c1 | 50% |  | 100% | 100% | 60% | 100%
CO/N=C(/C(=O)OC)c1ccccc1COc1ccccc1C [KRESOXIM-METHYL] | 0% |  | 100% | 100% | 30% | 100%
